{
  "source": "patent US11644474B2",
  "about": "“Use of macimorelin in assessing growth hormone deficiency in children” (Æterna Zentaris GmbH, priority 2020, dated 2023)",
  "type_in_all_cases": "in vivo, human (paediatric subjects with suspected GHD)",
  "key": {"[1]": {"test": "Macimorelin plasma pharmacokinetics after single oral dose (Study AEZS-130-P01)", "details": "for half-life: read-out: mean elimination half-life (converted); for Cmax: n=8 children; for AUC(0-t): read-out: mean AUC0-6 of macimorelin", "procedure": "(§1) This was an open-label, group comparison, dose escalation trial to investigate the safety, tolerability, pharmacokinetics and pharmacodynamics of single-dose 0.25, 0.5, and 1 mg/kg oral macimorelin acetate in paediatric subjects with suspected GHD. The macimorelin GHST was administered between two standard GHST, conducted as per local clinical practice, with a recovery period of 7-28 days between tests. For the purposes of obtaining a detailed macimorelin PK profile in children, blood samples were collected pre-dose (±15 min) and 15, 30, 45, 60, 90, 120, and 360 minutes after macimorelin acetate intake.\n(§2) The main features of Study P01 are summarized as follows: • Sequential cohorts of trial participants received macimorelin at ascending single oral doses: 0.25 mg/kg body weight in Cohort 1 (C1), 0.5 mg/kg body weight in Cohort 2 (C2), and 1 mg/kg body weight in Cohort 3 (C3). • For determination of macimorelin PK/PD: blood sampling at pre-dose, then 15, 30, 45, 60, 90, 120, and 360 minutes after the administration of macimorelin. • Two standard GHSTs (sGHSTs) had to be performed in a patient according to local practice. The related sGHST agents were considered as ‘background’ and not as IMPs. (Accepted test agents: insulin (insulin tolerance test or ITT), arginine, arginine/growth hormone releasing hormone (GHRH), clonidine, glucagon, L-dopa). Results\nMacimorelin plasma concentrations: the analysis of plasma samples for macimorelin concentration was carried out at a central laboratory, Prolytic GmbH, Germany, using a validated liquid chromatography-mass spectrometry (LCMS/MS) method with a detection limit of 0.2 ng/mL (Franz, 2005).\nPreliminary pharmacokinetics (PK) were determined by: time of maximum measured concentration (tmax) and maximum concentration (Cmax) of macimorelin plasma concentrations in the sampling period."}, "GH secretion": {"system": "GH secretion", "test": "Macimorelin growth hormone stimulation test (GHST): serum GH after oral macimorelin (PD)", "details": "for Peak GH after Macimorelin GHST: individual patients, serum", "procedure": "as §1, §2\nGH serum concentration: the analysis of serum samples for GH concentration was carried out at a central laboratory by a validated immunochemiluminometric assay (IDS-iSYS Human Growth Hormone (hGH), Immunodiagnostic Systems Ltd [UK]) (Manolopoulou et al., 2012). This assay is standardized to the recombinant growth hormone calibration standard WHO 98/574, and complies with recommendations on assay standardization as outlined by Clemmons (Clemmons, 2011).\nThe analytical laboratory applied for GH was: Central Laboratory Synevo Łódź, Krakusa Str. 28, 93-515 Łódź. Poland. The lower limit of quantification was <0.05 ng/mL."}, "[2]": {"test": "Safety and tolerability of single oral macimorelin (adverse events, questionnaires, safety laboratory, ECG)", "details": "all three dosing cohorts, 0.25-1 mg/kg single oral dose; for safety and tolerability: questionnaires, safety laboratory, ECG", "procedure": "as §1"}, "[3]": {"details": "human, C1, 0.25 mg/kg single oral dose, plasma"}, "[4]": {"details": "human, C2, 0.5 mg/kg single oral dose, plasma"}, "[5]": {"details": "human, C3, 1 mg/kg single oral dose, plasma"}},
  "note": "Where “and” joins values, the source holds several entries; their conditions need not be identical. Identical values can stand only once. Entries after “also recorded” stand apart in the source; their conditions may differ. Like-named read-outs stand apart in the source and are kept apart here.",
  "data": [
    {"smiles": "CC(C)(N)C(=O)N[C@H](Cc1c[nH]c2ccccc12)C(=O)N[C@H](Cc1c[nH]c2ccccc12)NC=O", "note": "[macimorelin]", "values": [
      {"measurement": "change of macimorelin AUC with dose", "setting": "[1]; 0.25, 0.5, 1 mg/kg oral", "value": "increased with dose; also recorded: dose-dependent increase; also recorded: increases with the macimorelin dose"},
      {"measurement": "change of macimorelin Cmax with dose", "setting": "[1]; 0.25, 0.5, 1 mg/kg oral", "value": "dose-dependent increase; also recorded: dose-proportional increase"},
      {"measurement": "change of macimorelin plasma concentrations with dose", "setting": "[1]; 0.25, 0.5, 1 mg/kg oral, FIG. 1", "value": "dose-dependent increase with high inter-individual variability"},
      {"measurement": "time at which maximum plasma concentrations for macimorelin were mainly observed", "setting": "[1]; all cohorts, 0.25-1 mg/kg oral", "value": "30 to 45", "unit": "min"},
      {"measurement": "half-life", "setting": "[1]; human, plasma, C1, 0.25 mg/kg single oral dose", "value": 1.22, "unit": "h"},
      {"measurement": "half-life", "setting": "[1]; human, plasma, C2, 0.5 mg/kg single oral dose", "value": 1.61, "unit": "h"},
      {"measurement": "half-life", "setting": "[1]; human, plasma, C3, 1 mg/kg single oral dose", "value": 1.71, "unit": "h"},
      {"measurement": "Tmax", "setting": "[1]; human, plasma, all three groups C1-C3, 0.25-1 mg/kg oral", "value": "0.5 to 0.75", "unit": "h"},
      {"measurement": "Cmax", "setting": "[1]; [3]", "value": 3.46, "unit": "ng/mL"},
      {"measurement": "AUC(0-t)", "setting": "[1]; [3]", "value": 6.69, "unit": "ng·h/mL"},
      {"measurement": "Cmax", "setting": "[1]; [4]", "value": 8.13, "unit": "ng/mL"},
      {"measurement": "AUC(0-t)", "setting": "[1]; [4]", "value": 18, "unit": "ng·h/mL"},
      {"measurement": "Cmax", "setting": "[1]; [5]", "value": 12.9, "unit": "ng/mL"},
      {"measurement": "AUC(0-t)", "setting": "[1]; [5]", "value": 30.9, "unit": "ng·h/mL"},
      {"measurement": "time within which peak GH levels were observed", "setting": "GH secretion; C1, 0.25 mg/kg oral", "value": "0.5 to 1", "unit": "h"},
      {"measurement": "mean Tmax of peak GH", "setting": "GH secretion; C1, 0.25 mg/kg oral (SD 11.3)", "value": 0.875, "unit": "h"},
      {"measurement": "Peak GH after Macimorelin GHST", "setting": "GH secretion; C1, 0.25 mg/kg oral", "value": "8.61 ng/mL and 0.51 ng/mL and 21.73 ng/mL and 5.22 ng/mL and 10.03 ng/mL and 14.07 ng/mL and 9.78 ng/mL and 8.38 ng/mL"},
      {"measurement": "time within which peak GH levels were observed", "setting": "GH secretion; C2, 0.5 mg/kg oral", "value": "0.25 to 1", "unit": "h"},
      {"measurement": "mean Tmax of peak GH", "setting": "GH secretion; C2, 0.5 mg/kg oral (SD 13.9)", "value": 0.625, "unit": "h"},
      {"measurement": "Peak GH after Macimorelin GHST", "setting": "GH secretion; C2, 0.5 mg/kg oral", "value": "5.06 ng/mL and 20.73 ng/mL and 7.41 ng/mL and 10.43 ng/mL and 21.36 ng/mL and 16.41 ng/mL and 9.67 ng/mL and 27.42 ng/mL"},
      {"measurement": "time within which peak GH levels were observed", "setting": "GH secretion; C3, 1 mg/kg oral", "value": "0.5 to 0.75", "unit": "h"},
      {"measurement": "mean Tmax of peak GH", "setting": "GH secretion; C3, 1 mg/kg oral (SD 8.0)", "value": 0.625, "unit": "h"},
      {"measurement": "stimulation of GH secretion", "setting": "GH secretion; C3, 1 mg/kg oral, 8 patients", "value": "stimulated evidently in all 8 patients; also recorded: evident stimulation of GH secretion in all 8 patients"},
      {"measurement": "Peak GH after Macimorelin GHST", "setting": "GH secretion; C3, 1 mg/kg oral", "value": "17.13 ng/mL and 14.46 ng/mL and 59.73 ng/mL and 49.16 ng/mL and 25.07 ng/mL and 14.63 ng/mL and 11.35 ng/mL and 44.73 ng/mL"},
      {"measurement": "mean Tmax of GH release", "setting": "GH secretion; all cohorts C1-C3", "value": "0.5 to 1", "unit": "h"},
      {"measurement": "time of maximum GH release after macimorelin administration", "setting": "GH secretion; all cohorts C1-C3", "value": "0.25 to 2", "unit": "h"},
      {"measurement": "time at which peak GH levels were mainly observed following macimorelin intake", "setting": "GH secretion; all three cohorts", "value": "30 to 60", "unit": "min"},
      {"measurement": "adverse events related to macimorelin", "setting": "[2]; 24 children", "value": "none were considered related to the macimorelin test; also recorded: No adverse event was reported in relation to macimorelin"},
      {"measurement": "safety and tolerability", "setting": "[2]", "value": "excellent safety and tolerability"},
      {"measurement": "safety and tolerability", "setting": "[2]; listed as Macimorelin acetate", "value": "safe and well tolerated in all dosing cohorts"}
    ]}
  ]
}
